Series [1] concerns the target T1, P-gp (Homo sapiens, UniProt P08183). To be noted: digoxin 10 µM alone.
Method: (§1) Caco-2 cells were seeded in transwell poly carbonate inserts (6 well, 0.4 µm pore size, Corning co-star Co.) at 70,000 cells per insert on the day of seeding. Cells were cultured in DMEM supplemented with 10 % fetal bovine serum and 1 % non essential amino acids (Gibco). All the cells were incubated at 37 °C in a humidified atmosphere with 5 % CO2 and 95 % air. For uptake studies, Caco-2 cells were seeded on to 0.7 cm^2 dishes at a density of approximately 70,000 cells per dish and used for experiment.
A further series has as its system Caco-2. The following applies: ref Collett et al. 2004; cited from earlier work.
Series [2] concerns the target T1, P-gp. Nature of the series: in vitro. To be noted: Caco-2.
Method: as §1
For series [3], the system named is P-gp. Nature of the series: In vivo P-gp inhibition study: plasma and brain pharmacokinetics of i.v. quinidine in mice with and without inhibitor pre-treatment. To be noted: for Effect of pre-treatment on plasma profile of quinidine: quinidine 5 mg/kg i.v., inhibitor i.v. 0.5 h pre-treatment; for AUC(0-inf) / AUC(0-t) / Cmax / Tmax: male, C57, mouse, iv, 5 mg/kg. The method, then:
Male C57 mice weighing 30–35 g and of 6–8 weeks old were taken and the animal experiments were conducted in the animal research facility of Syngene International limited, Bengaluru, India. […] Animal study protocols were approved by the Syngene International organisational animal ethics committee, Bengaluru, India.
Dose volumes (5 mL/kg) of drugs were administered by i.v. route via tail vein injection. […]
Mice were divided into three groups (n = 3–4). […] Blood and brain samples were collected at 0.5, 1, 3, 5 and 7 h post dose of probe substrate. Blood was collected from mice under mild anaesthesia via tail vein and collected blood was centrifuged at 5000 rpm to separate plasma.
After sacrificing the mice at different time points, brain was collected homogenised at 5× concentration with phosphate buffered saline using Bullet blender. Fifty µL of brain homogenate or plasma and 200 µL of internal standard (IS) in vehicle (70 % acetonitrile and 30 % water) were mixed in a 96-well hydrophilic solvinert plate. The acetonitrile mixtures were vortexed and centrifuged at 10,000 rpm for 10 min. Supernatant was collected in a 96 well plate and analysed by liquid chromatography with mass spectroscopy (LC-MS, QTRAP ABSCIEX API 4000).
Analysis was carried out using 4000 QTRAP LC/MS/MS system with triple Quadruple mass spectrometer (AB SCIEX) equipped with an electron spray ionisation (ESI). The mass spectrometer was operated in the ESI positive ion mode and detection of ions were performed in the multiple reaction monitoring (MRM) mode.

Series [4] has as its system P-gp. The arrangement: method as in O’Brien et al. 2013. The following applies: P-gp inhibition using cyclosporin and verapamil; ref O’Brien et al. 2013; cited from earlier work.
The subject of series [5] is P-gp. Also on record: method as in Van Asperen et al. 1996. The following applies: ref Van Asperen et al. 1996; cited from earlier work.

The text below walks through data of paper PMC5028351, “Natural flavonoids silymarin and quercetin improve the brain distribution of co-administered P-gp substrate drugs” (SpringerPlus, 2016).

Each structure is given as a SMILES string.

T1 sequence (P08183 whole entry): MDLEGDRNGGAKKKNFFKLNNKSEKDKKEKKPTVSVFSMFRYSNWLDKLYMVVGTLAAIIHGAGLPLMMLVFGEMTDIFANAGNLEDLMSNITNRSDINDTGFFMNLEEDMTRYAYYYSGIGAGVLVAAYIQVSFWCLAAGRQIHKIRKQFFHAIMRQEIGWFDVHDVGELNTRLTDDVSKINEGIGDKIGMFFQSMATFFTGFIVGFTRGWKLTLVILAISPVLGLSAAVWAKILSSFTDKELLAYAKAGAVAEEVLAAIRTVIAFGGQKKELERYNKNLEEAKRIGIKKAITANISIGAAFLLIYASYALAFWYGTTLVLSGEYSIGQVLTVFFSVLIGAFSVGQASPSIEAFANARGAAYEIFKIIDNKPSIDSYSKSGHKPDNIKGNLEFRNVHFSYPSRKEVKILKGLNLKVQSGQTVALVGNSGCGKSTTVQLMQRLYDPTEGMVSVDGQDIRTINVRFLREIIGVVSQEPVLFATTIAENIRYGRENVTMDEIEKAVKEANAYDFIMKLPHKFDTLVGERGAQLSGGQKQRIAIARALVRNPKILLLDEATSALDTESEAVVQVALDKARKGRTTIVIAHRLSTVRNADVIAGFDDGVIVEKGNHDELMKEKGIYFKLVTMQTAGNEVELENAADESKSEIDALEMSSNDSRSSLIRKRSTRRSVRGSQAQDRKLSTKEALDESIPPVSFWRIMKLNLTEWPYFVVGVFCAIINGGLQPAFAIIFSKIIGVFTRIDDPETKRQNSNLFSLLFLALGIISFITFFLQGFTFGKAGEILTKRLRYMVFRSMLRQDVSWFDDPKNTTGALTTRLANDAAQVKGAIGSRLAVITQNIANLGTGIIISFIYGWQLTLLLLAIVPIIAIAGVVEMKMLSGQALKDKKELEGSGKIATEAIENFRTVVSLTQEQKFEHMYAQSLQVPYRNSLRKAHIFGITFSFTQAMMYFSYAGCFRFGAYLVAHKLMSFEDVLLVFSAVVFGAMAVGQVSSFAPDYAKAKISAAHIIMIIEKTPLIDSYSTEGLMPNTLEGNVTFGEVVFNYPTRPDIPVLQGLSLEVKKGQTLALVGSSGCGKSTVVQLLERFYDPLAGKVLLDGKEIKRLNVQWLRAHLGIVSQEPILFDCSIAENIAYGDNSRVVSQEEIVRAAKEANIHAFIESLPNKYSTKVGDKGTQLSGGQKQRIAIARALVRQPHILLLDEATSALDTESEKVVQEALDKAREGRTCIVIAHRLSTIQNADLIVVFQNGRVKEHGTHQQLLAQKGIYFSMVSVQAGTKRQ

Usually Papp A→B stands for how fast a substance crosses the layer from the apical side. Read a low Papp A→B as slow passage. What is called Papp B→A is how fast a substance crosses the layer from the basolateral side. Take `C[C@H]1O[C@@H](O[C@H]2[C@@H](O)C[C@H](O[C@H]3[C@@H](O)C[C@H](O[C@H]4CC[C@@]5(C)[C@H](CC[C@@H]6[C@@H]5C[C@@H](O)[C@]5(C)[C@@H](C7=CC(=O)OC7)CC[C@]65O)C4)O[C@@H]3C)O[C@@H]2C)C[C@H](O)[C@@H]1O` [Digoxin]: at P-gp [1] (Caco-2 (Table 3)), the “AP-BL transport of digoxin” value is listed as 5.18 10^−8 cm/s and the “BL-AP transport of digoxin” value came to 1.80 ×10⁻⁶ cm/s. At P-gp [1] (Caco-2 monolayers), the “AP-BL transport (PappA–B) of digoxin” value is 0.0518 ×10⁻⁶ cm/s and the “BL-AP transport (PappB–A) of digoxin” value is 1.8 ×10⁻⁶ cm/s. The “Caco-2 Papp” value with Caco-2 was 1.1 ×10⁻⁶ cm/s. At P-gp [2], the Papp A→B at 10 µM amounted to 0.0518 ×10⁻⁶ cm/s and the Papp B→A at 10 µM came to 1.8 ×10⁻⁶ cm/s.
`COc1cc2c(cc1OC)CN(CCc1ccc(NC(=O)c3cccc4c(=O)c5cccc(OC)c5[nH]c34)cc1)CC2` [Elacridar]: in the series with P-gp [3] (mice), the “Effect of pre-treatment on plasma profile of quinidine” value is given as “no significant difference”.
Turning to `CN(C)CCC[C@@]1(c2ccc(F)cc2)OCc2cc(C#N)ccc21` [Escitalopram], the “Increase in brain concentration” value in the series on P-gp [4] was “threefold”.
For `O=c1c(O)c(-c2ccc(O)c(O)c2)oc2cc(O)cc(O)c12` [Quercetin], the “Increase in (AUC) 0–7h B/P of quinidine” value in the series on P-gp [3] (mice, inhibitor pre-treatment) is listed as “twofold”. The “Effect of pre-treatment on plasma profile of quinidine” value in the series with P-gp [3] (mice) was “no significant difference”.
As usually defined, the AUC(0-inf) is the area under the concentration-time curve extrapolated to infinity. Broadly, the AUC(0-t) is exposure summed from dosing to a finite time, without extrapolation to infinity. For orientation: Cmax means the maximum level reached in the sampled fluid or tissue. One may read the Tmax as the time at which the peak concentration occurs. On to `C=C[C@H]1C[N@@]2CC[C@H]1C[C@@H]2[C@@H](O)c1ccnc2ccc(OC)cc12` [Quinidine], for which, in the series with P-gp [3] (brain), the area under the curve AUC(0-inf) came to 251 ng·h/mL, the exposure AUC(0-t) was determined as 211 ng·h/mL, the Cmax was determined as 115 ng/mL and the Tmax was 48 min. Also, in the series with P-gp [3] (plasma), the AUC(0-inf) is 513 ng·h/mL, the area under the curve AUC(0-t) was found to be 496 ng·h/mL, the peak concentration (Cmax) is 209 ng/mL and the time of peak concentration (Tmax) was 39.6 min.
Take `CC[C@]1(O)C[C@@H]2CN(CCc3c([nH]c4ccccc34)[C@@](C(=O)OC)(c3cc4c(cc3OC)N(C)[C@H]3[C@@](O)(C(=O)OC)[C@H](OC(C)=O)[C@]5(CC)C=CCN6CC[C@]43[C@@H]65)C2)C1` [vinblastine]: the “Penetration into the brain, P-gp knockout mice compared with wild type control” value in the series with P-gp [5] is 7–46 folds.
